Measurements published in patent publication US4206207A, “Use of 4-carboxy-phthalato(1,2-diaminocyclohexane)-platinum (II) and alkali metal salts thereof with cyclophosphamide in alleviating L1210 murine leukemia” (priority 1978, dated 1980).
Where “and” joins values, the source holds several entries; their conditions need not be identical. Identical values can stand only once.

Tests used:
[1] = Renal Toxicity Screening Protocol, toxicity compared to NSC-119875; assay type: in vivo; details: for Body Weight Loss score / Clinical Chemistry - Blood Urea Nitrogen score / Clinical Chemistry - Creatinine score / Clinical Chemistry - Serum Glutamic Pyruvic Transaminase score / Hematology - Hematocrit score / Hematology - White Blood Cell score / Histopathology - Gastrointestinal score / Histopathology - Hematopoietic score / Histopathology - Lymphatic score / Histopathology - Renal score: relative to NSC-119875; for TOTAL SCORE: sum of the ten scores
P388/DDP = experiment: In vivo activity against P388/DDP leukemia with acquired resistance to NSC-119875; details: Days 1,5,9,13, NSC-119875 6.7 mg/kg, NSC-271674 20.0 mg/kg
Description: P388/DDP refers to a tumor line with acquired resistance to NSC119875.
(§1) Data are expressed as survival in days and as a percentage increase in […]

P388 leukemia = experiment: In vivo activity against P388 leukemia; details: Days 1,5,9,13, NSC-119875 6.7 mg/kg, NSC-271674 20.0 mg/kg
Description: as §1

L1210 [2] = experiment: In vitro growth inhibition of L1210 cells; assay type: cell-based, murine
Description: (§2) The ID50 refers to the concentration of test compound required to
(§3) inhibit the growth of either the L1210 or L1210/DDP (NSC119875) resistant

CD8F1 mammary = experiment: Mouse tumor panel: CD8F1 mammary (sc, tumor weight inhibition); assay type: in vivo; details: Q7DX5
Protocol: (§4) NSC-271674 Against a Panel of a Mouse Tumors
(§5) **Tumor weight inhibition assay.
(§6) Data are expressed as a percentage of the survival time in days or the
(§7) tumor weights in mg of the treated mice divided by the corresponding
(§8) values for the control mice. All testing was performed using both platinu
(§9) compounds in the same experiment. The criteria for activity are as
(§10) follows: confirmed activity (activity from two separate laboratories) of
(§11) % T/C of 150 or more for survival systems and 10% or less for tumor weigh
(§12) inhibition assays. Lower levels of activity such as a % T/C of 125 for
(§13) survival systems and 42% for tumor weight inhibition assays are considere
(§14) statistically significant.

L1210 leukemia [3] = experiment: Second screener against L1210 leukemia, day 1, 5, 9 schedule; assay type: in vivo, murine
Description: The compound was submitted to the Drug Development Branch of the National Cancer Institute and assigned NSC Number 271674. It was screened against the L1210 leukemia on a day 1, 5, 9 schedule and the following results were obtained:

L1210 leukemia [4] = experiment: NCI screen against L1210 leukemia, day 1, 5, 9 schedule; assay type: in vivo, murine
Description: The compound was submitted to the Drug Development Branch of the National Cancer Institute and assigned NSC Number 271674. It was screened against the L1210 leukemia on a day 1, 5, 9 schedule and the following results were obtained: […]

L1210 [5] = experiment: Mouse tumor panel: L1210 (ip, survival time); assay type: in vivo; details: D1-9
Protocol: as §4
(§15) *Survival time (mean or median) assay
as §6, §7, §8, §9, §10, §11, §12, §13, §14

Lethality (LD50) in mice = details: mouse, in vivo
[6] = test system: strains of murine leukemia; experiment: Activity against strains of murine leukemia resistant to NSC 119875 (general statement); details: mouse, in vivo
Lewis lung = experiment: Mouse tumor panel: Lewis lung (iv, survival time); assay type: in vivo; details: D1-9
Protocol: as §4, §15, §6, §7, §8, §9, §10, §11, §12, §13, §14

murine leukemia L1210 = experiment: Antileukemic activity in mice against murine leukemia L1210 (general statement); assay type: in vivo
Description: Some previous platinum chelate compounds show dosage limitation due to renal impairment but the free carboxyl of the present composition offers a possible route of oral […] and absorption by the stomach.

Colon #38 = experiment: Mouse tumor panel: Colon #38 (sc, tumor weight inhibition); assay type: in vivo; details: D2,9
Protocol: as §4, §5, §6, §7, §8, §9, §10, §11, §12, §13, §14

L1210 leukemia [7] = experiment: L1210 leukemia in BDF1 mice, ip treatment on Day 1 only; assay type: in vivo; details: for % increase in life span (% ILS): in 1% NaHCO3
Protocol: The compound in 1% NaHCO3 solution was tested against the L1210 leukemia in BDF1 mice [10^6 cells given to mice on Day 0, treatment (ip) on Day 1 only] in laboratory and the following % increases in life span (%ILS) were noted: […]

B16 melanoma = experiment: Mouse tumor panel: B16 melanoma (ip, survival time); assay type: in vivo; details: D1-9
Protocol: as §4, §15, §6, §7, §8, §9, §10, §11, §12, §13, §14

L1210/DDP = experiment: In vitro growth inhibition of L1210/DDP (NSC-119875 resistant) cells; assay type: cell-based, murine
Description: as §2, §3

L1210 leukemia [8] = experiment: L1210 leukemia in mice, treatment delayed until Day 3, singly and in combination; assay type: in vivo, BDF1 mice; details: Day 3 treatment
Protocol: The compound in 1% NaHCO3 solution was tested against the L1210 leukemia in BDF1 mice [10^6 cells given to mice on Day 0, treatment (ip) on Day 1 only] in laboratory and the following % increases in life span (%ILS) were noted:
When treatment was delayed until Day 3, 5 mg/kg gave 51% ILS, 42% ILS and 39% ILS in three experiments.

L1210 leukemia [9] = assay type: in vivo, mice; details: hydroxyurea alone, at least 1000 mg/kg
Protocol: Compound Pt-307 was administered usually in a dosage regimen of 5-60 mg/kg of body weight. This was given as a single dose or on Days 1, 5, and 9 in the standard National Institutes of Health 10-day testing.
CY was utilized at an optimum 50 mg/kg of body weight (range 25-75 mg/kg) preferably given at Day 3 in the 10-day testing. 5-FU was utilized at 75 mg/kg of body weight (range 50-100 mg/kg) at Day 3. HU was used in a high dosage of at least 1000 mg/kg of body weight (range 1000-1500 mg/kg). The 5-FU and the HU were utilized as ternary compositions only with cyclophosphamide and the platinum compound.
Hydroxyurea is utilized in combination therapy at a high dosage of at least 1000 mg/kg of body weight (range 1000-1500 mg/kg).

[10] = 5 mg/kg + cyclophosphamide 50 mg/kg + 5-fluorouracil 75 mg/kg
[11] = 5 mg/kg + cyclophosphamide 50 mg/kg, two experiments

## NC1CCCCC1N.O=S(=O)([O-])[O-].[Pt+2] (stereo not drawn) [NSC-250427]
[1]
  Body Weight Loss score: 2
  Clinical Chemistry - Blood Urea Nitrogen score: 1
  Clinical Chemistry - Creatinine score: 1
  Clinical Chemistry - Serum Glutamic Pyruvic Transaminase score: 5
  Hematology - Hematocrit score: 3
  Hematology - White Blood Cell score: 3
  Histopathology - Gastrointestinal score: 1
  Histopathology - Hematopoietic score: 4
  Histopathology - Lymphatic score: 2
  Histopathology - Renal score: 2
  TOTAL SCORE: 24

## CC(C)N.CC(C)N.[Cl-].[Cl-].[OH-].[OH-].[Pt] [NSC-256927, bisisopropylamine-cis-dichloro-transdihydroxy]
[1]
  Body Weight Loss score: 2
  Clinical Chemistry - Blood Urea Nitrogen score: 1
  Clinical Chemistry - Creatinine score: 1
  Clinical Chemistry - Serum Glutamic Pyruvic Transaminase score: 3
  Hematology - Hematocrit score: 4
  Hematology - White Blood Cell score: 3
  Histopathology - Gastrointestinal score: 1
  Histopathology - Hematopoietic score: 4
  Histopathology - Lymphatic score: 4
  Histopathology - Renal score: 2
  TOTAL SCORE: 25

## N[C@@H]1CCCC[C@H]1N.O=C([O-])c1ccc(C(=O)[O-])c(C(=O)[O-])c1.[H+].[Pt+2] [NSC-271674, 4-Carboxyphthalato(1,2-diaminocyclohexane)platinum(II)]
[1]; against NSC 119875
  renal toxicity (in words): superior results in testing for renal toxicity
[1]
  Body Weight Loss score: 3
  Clinical Chemistry - Blood Urea Nitrogen score: 1
  Clinical Chemistry - Creatinine score: 1
  Clinical Chemistry - Serum Glutamic Pyruvic Transaminase score: 3
  Hematology - Hematocrit score: 3
  Hematology - White Blood Cell score: 3
  Histopathology - Gastrointestinal score: 1
  Histopathology - Hematopoietic score: 5
  Histopathology - Lymphatic score: 1
  Histopathology - Renal score: 2
  TOTAL SCORE: 23
P388/DDP
  % ILS: 201%
  Survival: 33.3 days
P388 leukemia
  % ILS: 56%
  Survival: 20.7 days
L1210 [2]
  ID50 (concentration required to inhibit the growth of cells by 50 percent): 0.30 µg/mL
CD8F1 mammary; CD8F1 first line, optimal dose NSC-119875 8, NSC-271674 6.25 mg/kg/inj
  % T/C (tumor weight) at optimal dose: 11%
CD8F1 mammary; CD8F1 second line, optimal dose NSC-119875 8, NSC-271674 25 mg/kg/inj
  % T/C (tumor weight) at optimal dose: 25%
L1210 leukemia [3]; 0.78 mg/kg
  % ILS: 19%
L1210 leukemia [3]; 1.56 mg/kg
  % ILS: 19%
L1210 leukemia [3]; 3.13 mg/kg
  % ILS: 41%
L1210 leukemia [3]; 6.25 mg/kg
  % ILS: 58%
  questionably toxic deaths: 2 deaths
L1210 leukemia [3]; 12.5 mg/kg
  % ILS: 147%
L1210 leukemia [3]; 25 mg/kg
  % ILS: 86%
L1210 leukemia [3]; all doses
  cures: No cures
L1210 leukemia [4]; 0.78 mg/kg
  % ILS: 27%
  Cures (of 10): 0 of 10
L1210 leukemia [4]; 1.56 mg/kg
  % ILS: 33%
  Cures (of 10): 0 of 10
L1210 leukemia [4]; 3.13 mg/kg
  % ILS: 46%
  Cures (of 10): 0 of 10
L1210 leukemia [4]; 6.25 mg/kg
  % ILS: 163%
  Cures (of 10): 1 of 10
L1210 leukemia [4]; 12.5 mg/kg
  % ILS: 191%
  Cures (of 10): 2 of 10
L1210 leukemia [4]; 25 mg/kg
  % ILS: 344%
  Cures (of 10): 5 of 10
L1210 [5]; L1210 first line, optimal dose NSC-119875 2, NSC-271674 0.78 mg/kg/inj
  % T/C (survival time) at optimal dose: 174%
L1210 [5]; L1210 second line, optimal dose NSC-119875 2, NSC-271674 1.56 mg/kg/inj
  % T/C (survival time) at optimal dose: 325%
Lethality (LD50) in mice
  approximate LD50: ~75 mg/kg
[6]
  activity against NSC 119875-exhausted strains (in words): appears to be active
Lewis lung; Lewis lung first line, optimal dose NSC-119875 2, NSC-271674 3.12 mg/kg/inj
  % T/C (survival time) at optimal dose: 122%
Lewis lung; Lewis lung second line, optimal dose NSC-119875 2, NSC-271674 6.25 mg/kg/inj
  % T/C (survival time) at optimal dose: 127%
Murine leukemia L1210; cyclophosphamide 50 mg/kg, optionally 5-FU 75 mg/kg or HU 1000 mg/kg
  effect of combination with cyclophosphamide (in words): potentiated
Murine leukemia L1210; mice
  antileukemic activity (in words): antileukemic activity
  effective dosage: 5-60 mg/kg of body weight
Colon #38; Colon #38 first line, optimal dose NSC-119875 8, NSC-271674 12.5 mg/kg/inj
  % T/C (tumor weight) at optimal dose: 50%
Colon #38; Colon #38 second line, optimal dose NSC-119875 16, NSC-271674 50 mg/kg/inj
  % T/C (tumor weight) at optimal dose: 33%
L1210 leukemia [7]; 5 mg/kg ip
  % increase in life span (% ILS): 70%
L1210 leukemia [7]; 10 mg/kg ip
  % increase in life span (% ILS): 118%
L1210 leukemia [7]; 20 mg/kg ip
  % increase in life span (% ILS): 119%
L1210 leukemia [7]; 25 mg/kg ip
  % increase in life span (% ILS): 139%
L1210 leukemia [7]; 40 mg/kg ip
  % increase in life span (% ILS): 232%
L1210 leukemia [7]; 50 mg/kg ip
  mice survived > 60 days: 1 of 8
  % increase in life span (% ILS): 288%
L1210 leukemia [7]; 60 mg/kg ip
  mice survived > 60 days: 1 of 8
  % increase in life span (% ILS): 174%
B16 melanoma; B16 first line, optimal dose NSC-119875 2, NSC-271674 6.25 mg/kg/inj
  % T/C (survival time) at optimal dose: 171%
B16 melanoma; B16 second line, optimal dose NSC-119875 1, NSC-271674 1.56 mg/kg/inj
  % T/C (survival time) at optimal dose: 159%
L1210/DDP
  ID50 (concentration required to inhibit the growth of cells by 50 percent): 0.23 µg/mL
L1210 leukemia [8]; [10]
  % ILS: 673%
  >60 day survivors: 8 of 10
L1210 leukemia [8]; [11]
  % ILS: 416% and 217%
  >60 day survivors: 3 of 10 and no
L1210 leukemia [8]; 5 mg/kg alone, three experiments
  % ILS: 51% and 42% and 39%

## NC(=O)NO [hydroxyurea]
L1210 leukemia [9]
  efficacy against L1210 (in words): only minimally effective
